Results reported in paper PMC10051477, “5,8-Dimethyl-9H-carbazole Derivatives Blocking hTopo I Activity and Actin Dynamics” (Pharmaceuticals, 2023).

Key:
[1] = tested on: MDA-MB-231 cells; assay: MTT assay, MDA-MB-231 cell viability; assay type: cell-based; settings: Homo sapiens, 72 h, mean ± standard deviation
Experimental: (§1) The inhibition of cancer cell growth exerted by the five considered compounds (1–5) has been evaluated in vitro against two models of breast cancer, namely the estrogen receptor positive (ER+) MCF-7 and the triple negative MDA-MB-231 human breast cancer cells (lacking ER, PR, and HER-2/Neu amplification), together with the normal counterpart, namely the non-malignant breast epithelial cells MCF-10A. […] Moreover, no effects were recorded against the MCF-7 cells, at least until the concentration of 100 μM. […] Thus, the two lead compounds were chosen for subsequent studies aiming at individuating the molecular mechanisms underlying the observed anticancer activity.
(§2) MTT assays (Sigma Aldrich (St.Louis, MO, USA)) were employed to evaluate the in vitro anticancer activities of all the studied compounds, as previously described. The compounds were tested at different concentrations (0.1-1-10-25-50-100 μM) for 72 h. The IC50 values were calculated from the percent (%) of control using GraphPad Prism 9 (GraphPad Software, La Jolla, CA, USA).

[2] = tested on: MCF-7 cells; assay: MTT assay, MCF-7 cell viability; assay type: cell-based; settings: Homo sapiens, MCF7, 72 h, mean ± standard deviation
Experimental: as §2

[3] = molecular target: T1, hTopo II (Homo sapiens, UniProt P11388); assay: hTopo II decatenation assay; assay type: biochemical; settings: compound at 10 μM, kDNA, agarose gel
T1 construct: purchased TopoGEN
T1 sequence (P11388 whole entry): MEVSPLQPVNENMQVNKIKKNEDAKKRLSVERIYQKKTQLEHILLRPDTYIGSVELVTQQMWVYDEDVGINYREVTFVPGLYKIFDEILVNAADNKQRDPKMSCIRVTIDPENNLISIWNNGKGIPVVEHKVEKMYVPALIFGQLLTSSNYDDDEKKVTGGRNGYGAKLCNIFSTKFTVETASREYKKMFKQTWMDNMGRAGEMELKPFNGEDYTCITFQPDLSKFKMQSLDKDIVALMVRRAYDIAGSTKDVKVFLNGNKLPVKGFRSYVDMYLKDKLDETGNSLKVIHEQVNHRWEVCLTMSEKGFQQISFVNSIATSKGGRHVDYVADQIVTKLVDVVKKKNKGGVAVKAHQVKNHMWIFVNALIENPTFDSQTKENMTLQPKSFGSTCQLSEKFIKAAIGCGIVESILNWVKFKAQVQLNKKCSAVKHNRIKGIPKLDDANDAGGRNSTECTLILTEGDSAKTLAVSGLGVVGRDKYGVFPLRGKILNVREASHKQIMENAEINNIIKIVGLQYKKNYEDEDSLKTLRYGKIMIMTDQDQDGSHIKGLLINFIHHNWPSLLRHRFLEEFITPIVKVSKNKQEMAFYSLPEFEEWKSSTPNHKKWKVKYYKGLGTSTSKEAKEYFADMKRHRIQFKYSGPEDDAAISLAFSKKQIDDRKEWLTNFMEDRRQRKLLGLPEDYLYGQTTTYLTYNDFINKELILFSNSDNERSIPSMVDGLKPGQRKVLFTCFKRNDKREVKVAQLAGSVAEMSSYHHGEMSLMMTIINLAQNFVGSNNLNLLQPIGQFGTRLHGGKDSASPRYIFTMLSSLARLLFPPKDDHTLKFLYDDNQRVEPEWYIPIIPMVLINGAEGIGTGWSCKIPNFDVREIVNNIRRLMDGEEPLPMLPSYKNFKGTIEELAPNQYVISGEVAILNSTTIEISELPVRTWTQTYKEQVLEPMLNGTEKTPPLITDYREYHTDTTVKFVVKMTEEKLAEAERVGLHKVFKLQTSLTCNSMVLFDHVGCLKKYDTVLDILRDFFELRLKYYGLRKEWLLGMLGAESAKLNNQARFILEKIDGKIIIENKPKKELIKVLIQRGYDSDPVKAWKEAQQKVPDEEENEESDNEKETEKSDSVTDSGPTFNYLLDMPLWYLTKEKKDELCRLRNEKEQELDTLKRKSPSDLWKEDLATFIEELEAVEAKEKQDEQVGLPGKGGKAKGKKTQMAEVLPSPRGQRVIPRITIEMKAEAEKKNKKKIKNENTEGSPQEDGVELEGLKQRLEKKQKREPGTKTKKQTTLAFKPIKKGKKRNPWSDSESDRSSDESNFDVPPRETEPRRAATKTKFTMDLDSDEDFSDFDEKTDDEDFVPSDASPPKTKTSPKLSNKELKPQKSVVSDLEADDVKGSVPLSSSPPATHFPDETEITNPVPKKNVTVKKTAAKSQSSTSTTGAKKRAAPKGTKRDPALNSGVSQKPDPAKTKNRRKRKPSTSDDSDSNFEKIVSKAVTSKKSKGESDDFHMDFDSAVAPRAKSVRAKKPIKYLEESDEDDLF
Experimental: Next, we screened all the compounds for their activity against the hTopo II but, in this case, none of the tested compounds have been able to block the decatenation activity at the concentration of […] (Figure 3b, lanes 4 and 5). […] Indeed, two bands related to the DNA decatenation products are present at the bottom of the agarose gel, which denote the enzyme full activity, both in the control (only vehicle, Figure 3b, lane 3) and the tested compound reactions (Figure 3b, lanes 4–7).
Similarly, hTopo II decatenation assays were carried out, as indicated in the manufacturer’s procedures (TopoGEN, Port Orange, FL, USA) with some revisions.
hTopo II decatenation assays were performed in a final volume of 20 μL: 0.3 μg of kinetoplast DNA (kDNA) was added to a solution containing 1× assay buffer (50 mM Tris-HCl, pH of 8, 150 mM NaCl, 10 mM MgCl2, 0.5 mM Dithiothreitol (DTT), 30 μg/mL bovine serum albumin (BSA), 1 mM ATP) and the tested compounds. The mix was incubated for 15 min at 37 °C. Then, the reaction was started by adding 3 U of hTopo II and incubating at 37 °C for 1 h. Then, 5× stop buffer was added and the samples were treated as described in the previous paragraph. The aqueous phase was loaded on a 1% agarose gel containing 1× TAE buffer with EB (0.5 μg/mL) and visualized using an UV transilluminator.

[4] = molecular target: T2, F-actin (labeled rabbit muscle actin) (Oryctolagus cuniculus, UniProt P68135); assay: In vitro F-actin depolymerization assay; assay type: biochemical; settings: 5 µM added after 1 h polymerization, monitored 1 h; vehicle 20,000 RFU
T2 construct: fluorescent label (chemical); purchased Abcam; host or cells: rabbit muscle
Experimental: Moreover, we performed the F-actin depolymerization assay to verify whether compounds 3 and 4 could induce the actin depolymerization as well as the LA does (Figure 5, panel B). For this purpose, we started the actin polymerization for one hour under the same experimental conditions used previously. Then, we added the compounds or the reference molecules at the concentration of 5 µM and monitored the reactions for an additional hour. […] The addition of CB was not able to produce the same effect of LA. […] Contrarily, both the compounds were able to induce an important depolymerizing effect on the F-actin, most evident in the first 7 min after the exposure. Particularly, compounds 3 and 4 produced final values of approximately 14,000 and 12,000 RFU, respectively. […] This combined effect leads to a disorganization of the intracellular actin network.
An Actin Polymerization/Depolymerization Assay Kit, purchased from Abcam, was employed to assess the ability of compounds 3 and 4 to interfere with the actin polymerization and depolymerization processes. To perform the essays, the manufacturer’s instructions were followed with some modifications. In particular, polymerization assay was carried out incubating in a white 96-well plate the reconstituted actin with supplemented Buffer G, compounds 3 and 4 and then Buffer P was added in order to induce actin polymerization. For the Actin Depolymerization Assay, the actin polymerization was first induced, incubating supplemented Buffers P and G at room temperature for one hour. Then, compounds 3 and 4 were added at a concentration of 5 μM. Latrunculin A (LA) and Cytochalasin B (CB) were utilized as positive control at a concentration of 5 μM. For both the assays, the assemblage of the actin filaments was defined by measuring the fluorescence (Ex/Em: 365/410 nm) in kinetic mode for 1 h at room temperature in a microplate reader.

[5] = tested on: actin system in MDA-MB-231 cells; assay: Actin immunofluorescence in MDA-MB-231 cells; assay type: cell-based, human; settings: MDA-MB-231, 24 h; compounds at their IC50 values, LA 0.1 µM
Experimental: In order to determine whether the lead compounds 3 and 4 may effectively regulate the actin system, we employed both the immunofluorescence and in vitro direct enzymatic assays. […] As negative and positive controls, we used the only vehicle (DMSO) and latrunculin A (LA) at a concentration of 0.1 µM, respectively. After processing, the cells were observed under a fluorescent microscope, (see experimental section for the details). […] Moreover, the latter looked brighter and stocked in the cytoplasm in dot-like structures or thicker fibers. Again, the MDA-MB-231 cells, under exposure to compounds 3 and 4, lost their shape (Figure 4, compounds 3 and 4, panels B), as we observed under LA treatment, and with a very similar arrangement of the actin network.
The cells were plated and further processed, as previously indicated. Specifically, the rabbit anti-β-Actin (Santa Cruz Biotechnology, Dallas, TX, USA), diluted 1:100 in bovine serum albumin (BSA) 2%, was used as primary antibody and incubated overnight at 4 °C. The secondary antibody, Alexa Fluor® 488 conjugate goat-anti-rabbit, was diluted 1:500 and incubated for 2 h at 37 °C. DAPI (4′,6-diamidino-2-phenylindole, Sigma Aldrich, Milan, Italy) 0.2 μg/mL was used for nuclei staining. A fluorescence microscope (Leica DM 6000) was utilized for fluorescence detection (40× magnification). LAS-X software allowed acquiring and processing all the fluorescence images, which are representative of three separate experiments.

[6] = tested on: MCF-10A cells; assay: MTT assay, MCF-10A normal cell viability; assay type: cell-based, human; settings: 72 h, non-malignant breast epithelial cells, mean ± standard deviation
Experimental: as §1, §2

Structure (SMILES)	IC50 [1]	IC50 [2]	Inhibition of hTopo II decatenation activity [3]	F-actin depolymerization, final fluorescence value of reaction curve [4]	Effect on actin organization (immunofluorescence) [5]	IC50 [6]	IC50 ([6]; Homo sapiens, MCF-10A)
Cc1ccc(C)c2c1c1cc(B(O)O)ccc1n2C(=O)OC(C)(C)C [Compound 3]	1.44 ± 0.97 µM	27.6 ± 0.71 µM	no inhibitory activity	approximately 14,000 RFU	interfere with the normal actin organization	51.9 ± 0.88 µM	~52 µM
Cc1ccc(C)c2c1c1cc(O)ccc1n2C(=O)OC(C)(C)C [Compound 4]	0.73 ± 0.74 µM	19.8 ± 1.12 µM	no inhibitory activity	~12,000 RFU	interfere with the normal actin organization	–	> 100 µM
